Measured values as given in patent publication US10544130B2, “Metallo-beta-lactamase inhibitors” (priority 2015, dated 2020).

Tested on: Pseudomonas aeruginosa PAO1 MB9798 (efflux+, IMP-1)
Conditions: ratio MITC95 PA 9798/MITC95 PA 9799; imipenem at 2 μg/mL
Source text: The strain background was Pseudomonas aeruginosa PAO1.
The strain set was then used as a pair to determine the effect of metallo-β-lactamase inhibitors of Formula I on the MIC of imipenem and/or ceftazidime. A fixed concentration of antibiotic was included in standard microbroth MIC tests, usually at the CLSI (Clinical and Laboratory Standards Institute) breakpoint concentration. A fixed amount of a class A/C beta-lactamase inhibitor was also included to inhibit the resident Pseudomonas AmpC enzyme. A serial titration of the metallo-β-lactamase inhibitor was included and the concentration of metallo-β-lactamase inhibitor which restores susceptibility of the strain to the included antibiotic was recorded. That concentration of metallo-β-lactamase inhibitor was then compared between the two strains to determine the fold difference between the efflux + (MB9798) and efflux − (MB9799) strains. This was taken as an indication of the extent to which the MBLi is subject to efflux.

Nc1nc2c(-c3ccc(S(=O)(=O)N[C@@H]4CCNC4)c(S(N)(=O)=O)c3-c3nn[nH]n3)cc(I)cc2[nH]1 [Example 234, (R)-4-(2-amino-6-iodo-1H-benzo[d]imidazol-4-yl)-N^1-(pyrrolidin-3-yl)-3-(2H-tetrazol-5-yl)benzene-1,2-disulfonamide] was tested. Which Efflux ratio did it give?
The Efflux ratio was 1.00.

For NCC(CN)NS(=O)(=O)c1ccc(-c2cccnc2N)c(-c2nn[nH]n2)c1S(N)(=O)=O [Example 210, 4-(2-aminopyridin-3-yl)-N1-(1,3-diaminopropan-2-yl)-3-(2H-tetrazol-5-yl)benzene-1,2-disulfonamide], which Efflux ratio is on record?
Its Efflux ratio is 2.00.

Which Efflux ratio does the source give for Nc1nc2c(-c3ccc(S(N)(=O)=O)c(S(N)(=O)=O)c3-c3nn[nH]n3)cccc2o1 [Example 4, 4-(2-aminobenzo[d]oxazol-4-yl)-3-(2H-tetrazol-5-yl)benzene-1,2-disulfonamide] here?
Its Efflux ratio is 1.00.

How did the Efflux ratio turn out when CN(C)S(=O)(=O)c1ccc(-c2cccc3sc(N)nc23)c(-c2nn[nH]n2)c1S(N)(=O)=O [Example 151, 4-(2-aminobenzo[d]thiazol-4-yl)-N1,N1-dimethyl-3-(2H-tetrazol-5-yl)benzene-1,2-disulfonamide] was run?
Its Efflux ratio is 16.00.

For Nc1nc2c(-c3ccc(S(=O)(=O)N4CCC[C@H](N)C4)c(S(N)(=O)=O)c3-c3nnn[nH]3)cccc2s1 [Example 66, 3-(2-amino-1,3-benzothiazol-4-yl)-6-{[(3S)-3-aminopiperidin-1-yl]sulfonyl}-2-(1H-tetrazol-5-yl)benzenesulfonamide], which Efflux ratio is on record?
Its Efflux ratio is 2.00.

Which Efflux ratio does the source give for CN([C@H]1CCNC1)S(=O)(=O)c1ccc(-c2cccc3sc(N)nc23)c(-c2nnn[nH]2)c1S(N)(=O)=O [Example 65, 4-(2-amino-1,3-benzothiazol-4-yl)-N1-methyl-N1-[(3S)-pyrrolidin-3-yl]-3-(1H-tetrazol-5-yl)benzene-1,2-disulfonamide] here?
Its Efflux ratio is 2.00.

Nc1nc2c(-c3ccc(S(=O)(=O)NCCC4CNC4)c(S(N)(=O)=O)c3-c3nnn[nH]3)cccc2s1 [Example 30, 4-(2-amino-1,3-benzothiazol-4-yl)-N1-(2-azetidin-3-ylethyl)-3-(1H-tetrazol-5-yl)benzene-1,2-disulfonamide] was tested. Which Efflux ratio did it give?
The Efflux ratio was 1.00.

Which Efflux ratio does the source give for Nc1nc2cccc(-c3ccc(S(=O)(=O)N4CCNCC4)c(S(N)(=O)=O)c3-c3nn[nH]n3)c2[nH]1 [Example 157, 3-(2-amino-3H-benzo[d]imidazol-4-yl)-6-(piperazin-1-ylsulfonyl)-2-(2H-tetrazol-5-yl)benzenesulfonamide] here?
Its Efflux ratio is 4.00.

With Nc1nc2c(-c3ccc(S(=O)(=O)N[C@H]4CN[C@@H](CO)C4)c(S(N)(=O)=O)c3-c3nnn[nH]3)cccc2[nH]1 [Example 173, 4-(2-amino-1H-benzo[d]imidazol-4-yl)-N^1-((3R,5R)-5-(hydroxymethyl)pyrrolidin-3-yl)-3-(1H-tetrazol-5-yl)benzene-1,2-disulfonamide] as the compound, how does the Efflux ratio read?
Its Efflux ratio is 1.00.

How did the Efflux ratio turn out when CN(C1CCCNC1)S(=O)(=O)c1ccc(-c2cccc3sc(N)nc23)c(-c2nnn[nH]2)c1S(N)(=O)=O (centres unmarked) [Example 64, 4-(2-amino-1,3-benzothiazol-4-yl)-N1-methyl-N1-piperidin-3-yl-3-(1H-tetrazol-5-yl)benzene-1,2-disulfonamide] was run?
The Efflux ratio was 2.00.

Which Efflux ratio does the source give for Nc1nc2c(-c3ccc(S(=O)(=O)N[C@@H]4CN[C@H](CO)C4)c(S(N)(=O)=O)c3-c3nnn[nH]3)cccc2[nH]1 [Example 175, 4-(2-amino-1H-benzo[d]imidazol-4-yl)-N^1 - ((3S,5S)-5-(hydroxymethyl)pyrrolidin-3-yl)-3-(1H-tetrazol-5-yl)benzene-1,2-disulfonamide] here?
Its Efflux ratio is 0.50.

NCCNS(=O)(=O)c1ccc(-c2cccc(C(=O)NC[C@H](N)CO)c2N)c(-c2nn[nH]n2)c1S(N)(=O)=O [Example 333, (S)-2-amino-N-(2-amino-3-hydroxypropyl)-4′-(N-(2-aminoethyl)sulfamoyl)-3′-sulfamoyl-2′-(2H-tetrazol-5-yl)-[1,1′-biphenyl]-3-carboxamide] was tested. Which Efflux ratio did it give?
Its Efflux ratio is 1.00.

Which Efflux ratio does the source give for NCCNS(=O)(=O)c1ccc(-c2cccc3[nH]nnc23)c(-c2nn[nH]n2)c1S(N)(=O)=O [Example 236, N^1-(2-aminoethyl)-4-(1H-benzo[d][1,2,3]triazol-4-yl)-3-(2H-tetrazol-5-yl)benzene-1,2-disulfonamide] here?
The Efflux ratio was 1.00.

How did the Efflux ratio turn out when Nc1nc2c(-c3ccc(S(=O)(=O)NCC(=O)O)c(S(N)(=O)=O)c3-c3nn[nH]n3)cccc2s1 [Example 153, ((4-(2-aminobenzo[d]thiazol-4-yl)-2-sulfamoyl-3-(2H-tetrazol-5-yl)phenyl)sulfonyl)glycine] was run?
Its Efflux ratio is 1.00.

Nc1nc2c(-c3ccc(S(=O)(=O)NCCC(N)C(F)F)c(S(N)(=O)=O)c3-c3nnn[nH]3)cccc2s1.O=CO (centres unmarked) [Example 124, 4-(4-(2-aminobenzo[d]thiazol-4-yl)-2-sulfamoyl-3-(1H-tetrazol-5-yl)phenylsulfonamido)-1,1-difluorobutan-2-aminium formate] was tested. Which Efflux ratio did it give?
The Efflux ratio was 4.00.

With CN(C)CCNS(=O)(=O)c1ccc(-c2cccc3sc(N)nc23)c(-c2nnn[nH]2)c1S(N)(=O)=O [Example 22, 4-(2-amino-1,3-benzothiazol-4-yl)-N^1-[2-(dimethylamino)ethyl]-3-(1H-tetrazol-5-yl)benzene-1,2-disulfonamide] as the compound, how does the Efflux ratio read?
Its Efflux ratio is 1.00.

For Nc1nc2c(-c3ccc(S(=O)(=O)NCC4(N)CCOCC4)c(S(N)(=O)=O)c3-c3nnn[nH]3)cccc2s1.O=CO [Example 115, 4-((4-(2-aminobenzo[d]thiazol-4-yl)-2-sulfamoyl-3-(1H-tetrazol-5-yl)phenylsulfonamido)methyl)tetrahydro-2H-pyran-4-aminium formate], which Efflux ratio is on record?
The Efflux ratio was 1.00.

With C[C@H](CN)NS(=O)(=O)c1ccc(-c2cccc3[nH]c(N)nc23)c(-c2nn[nH]n2)c1S(N)(=O)=O [Example 187, 4-(2-amino-1H-benzo[d]imidazol-4-yl)-N^1—((R)-1-aminopropan-2-yl)-3-(2H-tetrazol-5-yl)benzene-1,2-disulfonamide] as the compound, how does the Efflux ratio read?
Its Efflux ratio is 0.50.

Nc1ccc(-c2ccc(S(=O)(=O)NC[C@@H]3CNCCN3)c(S(N)(=O)=O)c2-c2nn[nH]n2)cn1 [Example 312, (S)-4-(6-aminopyridin-3-yl)-N1-(piperazin-2-ylmethyl)-3-(2H-tetrazol-5-yl)benzene-1,2-disulfonamide] was tested. Which Efflux ratio did it give?
Its Efflux ratio is 1.00.

Which Efflux ratio does the source give for Nc1nc2c(-c3ccc(S(=O)(=O)NC4CN5CCC4CC5)c(S(N)(=O)=O)c3-c3nnn[nH]3)cccc2s1.O=C(O)C(F)(F)F (centres unmarked) [Example 97, 3-(4-(2-aminobenzo[d]thiazol-4-yl)-2-sulfamoyl-3-(1H-tetrazol-5-yl)phenylsulfonamido) quinuclidin-1-ium 2,2,2-trifluoroacetate] here?
Its Efflux ratio is 1.00.

For NCCNS(=O)(=O)c1ccc(-c2cccc3sc(N)nc23)c(-c2nn[nH]n2)c1S(N)(=O)=O [Example 145, 4-(2-aminobenzo[d]thiazol-4-yl)-N1-(2-aminoethyl)-3-(2H-tetrazol-5-yl)benzene-1,2-disulfonamide], which Efflux ratio is on record?
Its Efflux ratio is 0.50.

For Nc1nc2c(-c3ccc(S(=O)(=O)N[C@@H]4CN[C@H](CO)C4)c(S(N)(=O)=O)c3-c3nnn[nH]3)cccc2s1 [Example 80, 4-(2-amino-1,3-benzothiazol-4-yl)-N1-[(3S,5S)-5-(hydroxymethyl)pyrrolidin-3-yl]-3-(1H-tetrazol-5-yl)benzene-1,2-disulfonamide], which Efflux ratio is on record?
Its Efflux ratio is 1.00.

Which Efflux ratio does the source give for Nc1nc2c(-c3ccc(S(=O)(=O)NC4CCNCC4)c(S(N)(=O)=O)c3-c3nnn[nH]3)cccc2s1 [Example 32, 4-(2-amino-1,3-benzothiazol-4-yl)-N1-piperidin-4-yl-3-(1H-tetrazol-5-yl)benzene-1,2-disulfonamide] here?
The Efflux ratio was 0.50.

For Nc1nc2c(-c3ccc(S(=O)(=O)NC4C[C@@H]5CN[C@H]4C5)c(S(N)(=O)=O)c3-c3nnn[nH]3)cccc2s1.O=CO (stereo partly drawn) [Example 119, 4-(2-aminobenzo[d]thiazol-4-yl)-N1-((1S,4R)-2-azabicyclo[2.2.1]heptan-6-yl)-3-(1H-tetrazol-5-yl)benzene-1,2-disulfonamide, formate salt], which Efflux ratio is on record?
The Efflux ratio was 0.50.

Nc1nc2c(-c3ccc(S(=O)(=O)N[C@@H]4CCNC4)c(S(N)(=O)=O)c3-c3nn[nH]n3)cccc2[nH]1 [Example 161, 4-(2-amino-1H-benzo[d]imidazol-4-yl)-N^1—((R)-pyrrolidin-3-yl)-3-(2H-tetrazol-5-yl)benzene-1,2-disulfonamide] was tested. Which Efflux ratio did it give?
The Efflux ratio was 0.78.

With Nc1nc2c(-c3ccc(S(=O)(=O)N[C@H]4CO[C@H]5[C@@H]4OC[C@H]5N)c(S(N)(=O)=O)c3-c3nnn[nH]3)cccc2s1.O=C(O)C(F)(F)F [Example 103, (3R,3aR,6S,6aR)-6-(4-(2-aminobenzo[d]thiazol-4-yl)-2-sulfamoyl-3-(1H-tetrazol-5-yl)phenylsulfonamido) hexahydrofuro[3,2-b] furan-3-aminium 2,2,2-trifluoroacetate] as the compound, how does the Efflux ratio read?
The Efflux ratio was 2.00.

Which Efflux ratio does the source give for N#Cc1cccc(-c2ccc(S(=O)(=O)N[C@@H]3CCNC3)c(S(N)(=O)=O)c2-c2nnn[nH]2)c1N [Example 132, (R)-2′-amino-3′-cyano-N4-(pyrrolidin-3-yl)-2-(1H-tetrazol-5-yl)-[1,1′-biphenyl]-3,4-disulfonamide] here?
Its Efflux ratio is 4.00.

With NS(=O)(=O)c1c(S(=O)(=O)N2CCNCC2)ccc(-c2cccc3cn[nH]c23)c1-c1nnn[nH]1 [Example 160, 3-(1H-indazol-7-yl)-6-(piperazin-1-ylsulfonyl)-2-(1H-tetrazol-5-yl)benzenesulfonamide] as the compound, how does the Efflux ratio read?
The Efflux ratio was 4.00.

Which Efflux ratio does the source give for Nc1nc2c(-c3ccc(S(=O)(=O)N[C@@H]4CNC[C@@H]4O)c(S(N)(=O)=O)c3-c3nnn[nH]3)cccc2[nH]1 [Example 170, 4-(2-amino-1H-benzo[d]imidazol-4-yl)-N^1-((3R,4S)-4-hydroxypyrrolidin-3-yl)-3-(1H-tetrazol-5-yl)benzene-1,2-disulfonamide] here?
Its Efflux ratio is 1.00.
